The values below come from patent US7994209B2, “3-phenoxymethylpyrrolidine compounds” (Theravance, Inc., priority 2009, dated 2011).

One may read the Ki as a measure of affinity in units of concentration, obtained from inhibition or displacement.

Experiment [1] has as its target T1, hNET (Homo sapiens, UniProt P23975). The experiment in a line: hNET membrane radioligand binding assay (3H-nisoxetine), Assay 1.
For experiment [2], the target named is T2, hSERT (Homo sapiens, UniProt P31645). The experiment in a line: hSERT neurotransmitter uptake assay (3H-5-HT), Assay 2. It counts as cell-based. The settings on record: serotonin reuptake inhibition, 3H-5-HT uptake, HEK-293 hSERT cells (values without asterisk); read-out: SERT pIC50 (converted). Set-up: expressed in transfected cells; host or cells: HEK-293.
T2 sequence (P31645 whole entry): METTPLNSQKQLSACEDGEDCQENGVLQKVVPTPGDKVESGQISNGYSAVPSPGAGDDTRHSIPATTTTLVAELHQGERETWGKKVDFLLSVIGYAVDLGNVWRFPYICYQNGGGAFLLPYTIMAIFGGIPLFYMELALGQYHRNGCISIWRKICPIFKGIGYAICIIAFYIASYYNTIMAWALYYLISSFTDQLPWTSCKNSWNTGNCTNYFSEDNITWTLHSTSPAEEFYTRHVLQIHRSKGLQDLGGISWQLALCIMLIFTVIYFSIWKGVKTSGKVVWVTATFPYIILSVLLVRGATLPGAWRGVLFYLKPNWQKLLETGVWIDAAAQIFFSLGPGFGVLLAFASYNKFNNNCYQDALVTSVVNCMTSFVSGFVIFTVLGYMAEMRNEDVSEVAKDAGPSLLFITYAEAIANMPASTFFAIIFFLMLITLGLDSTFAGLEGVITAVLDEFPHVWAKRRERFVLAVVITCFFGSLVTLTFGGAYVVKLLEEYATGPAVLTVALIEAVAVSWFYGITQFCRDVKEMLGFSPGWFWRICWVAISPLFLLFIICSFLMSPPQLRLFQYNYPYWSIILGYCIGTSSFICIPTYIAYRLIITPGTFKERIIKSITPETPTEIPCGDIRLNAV

Experiment [3] concerns the target T1, hNET. The experiment in a line: hNET neurotransmitter uptake assay (3H-NE), Assay 2. It counts as cell-based. Set-up: expressed in transfected cells; host or cells: HEK-293. Conditions: norepinephrine reuptake inhibition, 3H-NE uptake, HEK-293 hNET cells (values without asterisk); read-out: NET pIC50 (converted).
The target of experiment [4] is T2, hSERT. Briefly: hSERT membrane radioligand binding assay (3H-citalopram), Assay 1. Conditions: SERT pKi, hSERT HEK-293 membranes, 1.0 nM 3H-citalopram; values given as lower bounds.

T1 sequence (P23975 whole entry): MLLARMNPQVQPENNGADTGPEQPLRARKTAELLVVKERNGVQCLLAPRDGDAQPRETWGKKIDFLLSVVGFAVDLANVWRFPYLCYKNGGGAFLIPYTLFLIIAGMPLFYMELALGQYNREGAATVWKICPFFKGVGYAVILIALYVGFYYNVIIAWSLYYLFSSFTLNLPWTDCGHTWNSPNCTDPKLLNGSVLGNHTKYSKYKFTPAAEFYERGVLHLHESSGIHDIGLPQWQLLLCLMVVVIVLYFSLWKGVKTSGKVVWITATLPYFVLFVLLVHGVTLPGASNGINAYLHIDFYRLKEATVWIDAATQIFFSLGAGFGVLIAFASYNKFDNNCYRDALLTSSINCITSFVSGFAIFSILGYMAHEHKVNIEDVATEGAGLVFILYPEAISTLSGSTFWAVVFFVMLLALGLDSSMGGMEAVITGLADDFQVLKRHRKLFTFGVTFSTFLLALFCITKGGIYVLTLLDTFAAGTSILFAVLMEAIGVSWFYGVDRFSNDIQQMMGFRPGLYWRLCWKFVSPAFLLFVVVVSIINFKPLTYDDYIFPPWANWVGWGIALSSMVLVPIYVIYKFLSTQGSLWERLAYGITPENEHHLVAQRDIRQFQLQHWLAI

Consider `CCC[C@@H](Oc1cccc(Cl)c1C)[C@H]1CCNC1` [Example 4-55, (S)-3-[(R)-1-(3-Chloro-2-methylphenoxy)butyl]pyrrolidine], for which the inhibitory constant (Ki) at hNET [1] and at hSERT [4] was at most 10 nM throughout. For the same compound, the IC50 on hSERT [2] is at most 100 nM; at hNET [3], at most 10 nM.

With `CCC[C@H](Oc1cccc(Cl)c1Cl)[C@H]1CCNC1` [Example 3, (S)-3-[(S)-1-(2,3-Dichlorophenoxy)butyl]pyrrolidine], the Ki at hNET [1] and on hSERT [4] was at most 10 nM each time. For the same compound, the IC50 at hSERT [2] and at hNET [3] was at most 10 nM in each case.

Regarding `CC(C)C[C@H](Oc1c(F)c(F)cc(F)c1Cl)[C@H]1CCNC1` [Example 10-86, (S)-3-[(S)-1-(2-Chloro-3,5,6-trifluorophenoxy)-3-methylbutyl]pyrrolidine], the inhibition constant (Ki) on hNET [1] and at hSERT [4] was at most 10 nM in each case. For the same compound, the IC50 on hSERT [2] and at hNET [3] was at most 10 nM throughout.

On to `Clc1cccc(Cl)c1O[C@@H](C1CC1)[C@H]1CCNC1` [Example 16-44, (S)-3-[(S)cyclopropyl-(2,6-dichlorophenoxy)-methyl]pyrrolidine], for which the inhibition constant (Ki) at hNET [1] was at most 10 nM; at hSERT [4], at most 100 nM. Further, the results for the IC50 at hSERT [2] and on hNET [3] were at most 316 nM and at most 10 nM, respectively.

For `CCC[C@H](Oc1c(Cl)cccc1Cl)[C@H]1CCNC1` [Example 4-33, (S)-3-[(S)-1-(2,6-Dichlorophenoxy)butyl]pyrrolidine], the Ki at hNET [1] and at hSERT [4] was at most 10 nM each time. The IC50 is at most 100 nM at hSERT [2] and at most 10 nM on hNET [3].

Take `CC(C)CC(Oc1cccc(C(F)(F)F)c1Cl)C1CCNC1` (centres unmarked) [Example 10-29, 3-[1-(2-Chloro-3-trifluoromethylphenoxy)-3-methylbutyl]pyrrolidine]: the Ki on hNET [1] and at hSERT [4] was at most 10 nM in each case. In addition, the IC50 on hSERT [2] and at hNET [3] was at most 10 nM in each case.

On to `CC(C)CC(Oc1ccc(C(F)(F)F)cc1)C1CCNC1` (centres unmarked) [Example 10-15, 3-[3-Methyl-1-(4-trifluoromethylphenoxy)butyl]pyrrolidine], for which the Ki at hNET [1] and at hSERT [4] was at most 10 nM in each case. The IC50 on hSERT [2] was at most 10 nM; on hNET [3] it was at most 100 nM.

On to `CC[C@@H](Oc1c(F)ccc(Cl)c1Cl)[C@H]1CCNC1` [Example 2-39, (S)-3-[(R)-1-(2,3-Dichloro-6-fluorophenoxy)propyl]pyrrolidine], for which the Ki on hNET [1] and on hSERT [4] was at most 10 nM throughout. In addition, the IC50 at hSERT [2] is at most 100 nM; on hNET [3], at most 10 nM.

Take `Cc1c(Cl)cccc1O[C@H](C(C)C)[C@H]1CCNC1` [Example 6-40, (S)-3-[(R)-1-(3-Chloro-2-methylphenoxy)-2-methylpropyl]pyrrolidine]: the Ki on hNET [1] and on hSERT [4] was at most 10 nM throughout. The IC50 on hSERT [2] and at hNET [3] was at most 10 nM throughout.

Consider `CC(C)C[C@@H](Oc1ccc(Cl)cc1)[C@H]1CCNC1` [Example 10-11, (S)-3-[(R)-1-(4-Chlorophenoxy)-3-methylbutyl]pyrrolidine], for which the Ki on hNET [1] and on hSERT [4] was at most 10 nM in each case. Moreover, the IC50 at hSERT [2] and at hNET [3] was at most 10 nM each time.

Regarding `Clc1ccc(O[C@@H](C2CC2)[C@H]2CCNC2)cc1` [Example 16-103, (S)-3-[(S)-(4-Chlorophenoxy)cyclopropylmethyl]pyrrolidine], the Ki at hNET [1] and at hSERT [4] was at most 10 nM each time. The IC50 on hSERT [2] and at hNET [3] was at most 10 nM throughout.

Consider `Fc1cccc(O[C@H](C2CC2)[C@H]2CCNC2)c1Cl` [Example 16-10, (S)-3-[(R)-(2-Chloro-3-fluorophenoxy)cyclopropylmethyl]pyrrolidine], for which the inhibition constant (Ki) at hNET [1] and on hSERT [4] was at most 10 nM throughout. For the same compound, the IC50 at hSERT [2] and at hNET [3] was at most 100 nM throughout.

As to `CCC[C@H](Oc1ccc(Cl)cc1C)[C@H]1CCNC1` [Example 4-58, (S)-3-[(S)-1-(4-Chloro-2-methylphenoxy)butyl]pyrrolidine], the Ki at hNET [1] and at hSERT [4] was at most 10 nM each time. For the same compound, the IC50 at hSERT [2] and at hNET [3] was at most 10 nM each time.

In the case of `CC(C)[C@@H](Oc1cccc(Cl)c1Cl)[C@H]1CCNC1` [Example 6-14, (S)-3-[(R)-1-(2,3-Dichlorophenoxy)-2-methylpropyl]pyrrolidine], the Ki at hNET [1] and on hSERT [4] was at most 10 nM in each case. Moreover, the IC50 at hSERT [2] and on hNET [3] was at most 10 nM in each case.

Take `CC[C@H](Oc1ccc(F)c(Cl)c1)[C@H]1CCNC1` [Example 2-21, (S)-3-[(S)-1-(3-Chloro-4-fluorophenoxy)propyl]pyrrolidine]: the Ki on hNET [1] and on hSERT [4] was at most 10 nM each time. Moreover, the IC50 at hSERT [2] is at most 100 nM; at hNET [3], at most 10 nM.

For the compound `CCCC[C@@H](Oc1ccccc1C(F)(F)F)[C@H]1CCNC1` [Example 8-2, (S)-3-[(R)-1-(2-Trifluoromethylphenoxy)pentyl]pyrrolidine], the Ki at hNET [1] and at hSERT [4] was at most 10 nM each time. Further, the IC50 on hSERT [2] and at hNET [3] was at most 100 nM each time.

As to `COc1cc(Cl)ccc1O[C@@H](C(C)C)[C@H]1CCNC1` [Example 6-47, (S)-3-[(S)-1-(4-Chloro-2-methoxyphenoxy)-2-methylpropyl]pyrrolidine], the Ki on hNET [1] and at hSERT [4] was at most 10 nM throughout. Also, the IC50 at hSERT [2] and at hNET [3] was at most 10 nM each time.

With `CCC[C@@H](Oc1cccc(Cl)c1Cl)[C@@H]1CCNC1` [Example 4-25, (R)-3-[(R)-1-(2,3-Dichlorophenoxy)butyl]pyrrolidine], the inhibition constant (Ki) on hNET [1] and at hSERT [4] was at most 10 nM throughout. Further, the IC50 at hSERT [2] and on hNET [3] was at most 10 nM in each case.

Regarding `CCC[C@H](Oc1ccccc1Cl)[C@H]1CCNC1` [Example 4-19, (S)-3-[(S)-1-(2-Chlorophenoxy)butyl]pyrrolidine], the Ki on hNET [1] and on hSERT [4] was at most 10 nM each time. Also, the results for the IC50 on hSERT [2] and on hNET [3] were at most 100 nM and at most 10 nM, respectively.

With `CCC[C@H](Oc1cccc(Cl)c1C)[C@H]1CCNC1` [Example 4-54, (S)-3-[(S)-1-(3-Chloro-2-methylphenoxy)butyl]pyrrolidine], the inhibition constant (Ki) at hNET [1] and at hSERT [4] was at most 10 nM in each case. For the same compound, the IC50 at hSERT [2] and at hNET [3] was at most 10 nM throughout.

As for `Cc1cc(Cl)cc(Cl)c1O[C@@H](C1CC1)[C@H]1CCNC1` [Example 16-77, (S)-3-[(S)cyclopropyl-(2,4-dichloro-6-methylphenoxy)methyl]pyrrolidine], the Ki on hNET [1] and on hSERT [4] was at most 10 nM each time. The IC50 at hSERT [2] is at most 10 nM; on hNET [3] it was at most 100 nM.

As for `CC[C@H](Oc1c(F)ccc(F)c1Cl)[C@H]1CCNC1` [Example 2-40, (S)-3-[(S)-1-(2-Chloro-3,6-difluorophenoxy)propyl]pyrrolidine], the inhibition constant Ki at hNET [1] and at hSERT [4] was at most 10 nM throughout. In addition, the results for the IC50 at hSERT [2] and at hNET [3] were at most 100 nM and at most 10 nM, respectively.

For `CC(C)C[C@@H](Oc1ccc(Cl)c(Cl)c1)[C@H]1CCNC1` [Example 10-73, (S)-3-[(R)-1-(3,4-Dichlorophenoxy)-3-methylbutyl]pyrrolidine], the inhibitory constant (Ki) on hNET [1] and at hSERT [4] was at most 10 nM each time. Further, the IC50 at hSERT [2] and at hNET [3] was at most 10 nM in each case.
